{"source": "paper PMC5303695", "about": "(Science (New York, N.Y.), 2016)", "biological_target": "PodA30–162 (Mycolicibacterium fortuitum, UniProt K0V2D8)", "experiment": "X-ray crystal structure, […] Å", "format": "binding", "conditions": "co-crystal; solvent-exposed active site, stacking with F70"}
{"compound": "Oc1cccc2nc3ccccc3nc12", "note": "[1-hydroxyphenazine]", "values": [{"measurement": "X-ray crystal structure, 1.8 Å", "result": "Crystal formation occurred only in the presence of 1-OH-PHZ, which was visible in a putative"}]}
